# Test results: US9034906B2, “EP4 agonist” (Asahi Glass Company, Limited, priority 2008, dated 2015)
# Columns and labels:
# [1] = tested on: anti-Thy-1 antibody-induced glomerulonephritis; assay: Anti-Thy-1 antibody-induced glomerulonephritis model in rats; type: in vivo, rat; conditions: Wistar rats, oral 0.3 mg/kg twice a day
# Experimental: Male Slc: Wistar rats (6 weeks old, Japan SLC) were purchased, acclimated for 1 week and used for the study. Except the normal group, anti-Thy-1 antibody (mouse anti-CD90 antibody (UK-Serotech Ltd. Code:MCA47XZ, clone No: MRC OX-7, Lot No. 0303)) was administered once intravenously to the animals. A mixture of compound F and compound J (F:J=52:41, indicated as compound F/J) was orally administered from the day of the antibody administration (day 0) to day 6, daily, twice a day (morning and evening; each 0.3 mg/kg). After 3 days from the antibody administration, urine was collected for one day. On day 7 of the antibody administration, the animal was autopsied. The right kidney was isolated, weighed and fixed with formalin. Five to 8 animals were used for each group and the results were expressed as average±standard deviation.
# [2] = target: T1, human EP4 (Homo sapiens, UniProt P35408); assay: Receptor affinity, tritium-labeled PGE2 binding to membranes of transfected COS-7 cells; conditions: binding affinity ratio
# T1 construct: expressed in transfected cells; host or cells: COS-7 (membranes)
# Experimental: PG receptor affinity of compound F and compound J of the present invention was evaluated. Compound F used was one synthesized in Example 9, and compound J was prepared by separating and purifying the compound synthesized in Example 14 with a column (the same preparations were used in the following Examples). COS-7 cells were transfected with the genes of mouse EP4, human EP1-4 or human IP to overexpress the receptor and then the cell membranes were collected. […] The dissociation constant Kd value was obtained and inhibition constant Ki value of each test compound was determined in a conventional method.
# [3] = In vitro metabolic stability: NADPH-independent β oxidation reaction in rat liver mitochondria fraction; type: in vitro ADME; conditions: 37° C., 30 min, tested as isomer mixtures, average±SD of 3 experiments
# Experimental: A mixture of the compound F and compound J of the present invention described in Table 1 (F:J=52:41, synthesized in Example 14), and a mixture of compounds wherein the tetrazole groups at C-1 of compound F and compound J are respectively substituted by carboxylic acid (referred to as carboxylate form, F:J=54:34, synthesized in Example 15) were tested.
# First, a mitochondria fraction was prepared from the rat liver according to the following Reference A. Then, in reference to the method of […] et al. described in the following References B and C, an NADPH-independent β oxidation reaction was studied. The reaction was carried out at 37° C. for 30 min, and stopped with a methanol solution containing a suitable internal standard substance. Each compound was quantified by the internal standard method using a high performance liquid chromatography mass spectrometry apparatus (LC-MS/MS). The compound residual ratio after metabolic reaction of compounds F, J and each carboxylate form thereof in rat mitochondria fraction is shown in the following Table 2 in average±standard deviation of 3 experiments.
# [4] = tested on: dextran sodium sulfate-induced colitis; assay: Dextran sodium sulfate-induced colitis model in mice (C57BL/6); type: in vivo, mouse; conditions: C57BL/6 mice, DSS, oral 0.3 mg/kg once a day
# Experimental: Whether or not an IP agonist has an effect on such colitis model was determined using a selective IP agonist, BPS.
# Female C57BL/6 mice (6 weeks old, Japan SLC) were purchased, acclimated for 1 week and used for the study. Except the normal group, the mice were allowed to freely drink a 3 or 2 w/v % DSS (MP Biochemicals, Lot No. 5653H and 5464H, respectively) solution for 1 week to induce colitis. BPS at a dose of 0.3 mg/kg and compound F at doses of 0.3 and 1 mg/kg were orally administered once a day, daily, from the start day of DSS drinking (day 0) to one day before autopsy (day 9). To the control group was orally administered a solvent (1 vol % ethanol solution) at 10 mL/kg in the same manner. The consistency of the stool was graded from score 0 to 4, with normal (0), partly loose stool (1), loose stool (2) and diarrhea (4). The blood feces was also graded from score 0 to 4, with normal (0), partly blood feces (1), blood feces (2) and blood feces plus proctorrhagia (4). The sum of both grades was defined as the stool score (maximum 8). Furthermore, the length of the large intestine was measured in the same manner as in Example 23. Six to 10 animals were used for each group, and the results are shown in average±standard deviation.
# [5] = Effect on blood pressure and heart rate in mice; type: in vivo, mouse; conditions: ICR mice, intravenous 0.01 mg/kg, isoflurane anesthesia
# Experimental: Male ICR mice (5 weeks old, Japan SLC) were purchased, acclimated for 6 days and used for the test. The animals were treated and measured under isoflurane inhalation anesthesia (anesthesia introduced at 2.5%, maintained at 1.8-2.1%), while body temperature was kept at 37° C. with a Heat Controller (ATC-402, Unique Medical Co., Ltd.). A catheter for administration of test compounds was inserted into the left femoral vein, and another catheter was inserted into the right femoral artery and connected to a pressure transducer to record each parameter of hemodynamics.
# Compound F, the carboxylate form of compound F and BPS were intravenously administered at a dose of 0.01 mg/5 mL/kg, and the effect on the mean blood pressure and heart rate was evaluated with computer software for the analysis of hemodynamics (Fluclet, Dainippon Sumitomo Pharma Co., Ltd.). To the control group was intravenously administered a solvent (1.2% ethanol solution) at 5 mL/kg in the same manner. The results are expressed as a ratio of change in each parameter before and after the drug administration. Three to 6 animals were used for each group, and the results were expressed as average±standard deviation.
# [6] = tested on: concanavalin A-induced hepatitis; assay: Concanavalin A-induced hepatitis model in mice, prophylactic; type: in vivo, mouse; conditions: BALB/c mice, oral 1 hr before Con A; compound F 1 mg/10 mL/kg, prednisolone 5 mg/10 mL/kg
# Experimental: The prophylactic effect of compound F on hepatitis was investigated using concanavalin A (hereinafter Con A)-induced hepatitis model.
# BALB/c mice (female, 7 weeks old, Japan SLC) were purchased, acclimated for 1 week and used for the study. Except the no-induction group, Con A (type IV, Sigma-Aldrich) dissolved in saline was administered from the tail vein of the mice at a dose of 12.5 mg/10 mL/kg to induce hepatitis. Twenty hr later, the mice were subjected to laparotomy under ether anesthesia. A 0.5 mL of blood sample was collected from the caudal vena cava and heparinized plasma was obtained to measure plasma ALT and AST activities. Test substances were compound F (1 mg/10 mL solution), prednisolone (Nacalai Tesque, 5 mg/10 mL suspension (with 0.5 w/v % methylcellulose)) and water for injection (administered to the control group), which were orally administered at a volume of 10 mL/kg 1 hr before Con A injection. Seven to 9 animals were used for each group. After logarithmic transformation of the data, one-way analysis of variance was performed for statistical evaluation.
# [7] = tested on: T cell transfer colitis; assay: CD4+CD25- T cell transfer colitis model in mice; type: in vivo, mouse; conditions: C.B-17/Icr-scid mice, oral 1 mg/kg once a day
# Excerpt: The effect on Crohn's disease, another type of inflammatory bowel disease, was studied. T cell transfer model is well known as a Crohn's disease model, which develops chronic […] or enteritis (see: References F, G, H). In addition, it can also be regarded as an animal model of intestinal Behcet's disease or simple ulcer, suffering from similar intestinal ulcer accompanied by activation of T cells (see: References I, J).
# Female BALB/cA Jcl mice, 6 weeks old, body weight 19-23 g (CLEA Japan, Inc.) and female C.B-17/Icr-scid mice (6 weeks old, CLEA Japan, Inc.) were purchased, acclimated for 1 week and used for the study.
# After laparotomy under ether anesthesia, BALB/cA Jcl mice were exsanguinated to death through the abdominal aorta and caudal vena cava, and the spleen was isolated. Splenocytes were prepared from the spleen and then CD4^+CD25^− T cells were prepared with a CD4^+ T cell Isolation Kit (No. 130-090-860, Milky Biotech Co., Ltd.) and CD25-Biotin antibody (No. 130-092-569, Milky Biotech Co., Ltd.). The cells were separated using the autoMACS Separator (Milky Biotech Co., Ltd.). The separated CD4^+CD25^− T cells were suspended in physiological phosphate buffer solution, and 2.5×10^5 cells per animal were intraperitoneally administered to C.B-17/Icr-scid mice to induce colitis.
# One mg/kg of compound F or prednisolone was initially administered at 5 hr before transfer of CD4^+CD25^− T cells, and orally administered thereafter once a day, daily, for 20 days. To the control group was orally administered a solvent (1 vol % ethanol solution) at 10 mL/kg. A clinical endpoint was the sum of stool consistency score (0-5), fecal occult blood score (0-4) and body weight decrease score (0-5), termed as the Disease Activity Index score (hereinafter to be abbreviated as DAI score: highest score 14). The stool consistency score was graded for the hardness of stool as normal (0), slightly loose (1), somewhat loose (2), loose (3), considerably loose (4) and diarrhea (5). The fecal occult blood score was evaluated in the same manner as in Example 23. The body weight decrease score was graded for the changes in the body weight as increase (0), decrease of less than 3% (1), decrease of not less than 3% and less than 6% (2), decrease of not less than 6% and less than 9% (3), decrease of not less than 9% and less than 12% (4), and decrease of not less than 12% (5). Eight to 10 mice were used for each group and the results were expressed as average.
# [8] = tested on: dextran sodium sulfate-induced colitis; assay: Remission/relapse model of dextran sodium sulfate-induced colitis in mice, therapeutic; type: in vivo, mouse; conditions: compound F 1 mg/kg, SASP 100 mg/kg, oral once a day for 50 days
# Excerpt: Next, therapeutic effect of compound F on colitis was studied in a chronic model. Female BALB/c mice, 6 weeks old, body weight about 20 g (Japan SLC) were purchased, acclimated for 1 week and used for the study. The mice were divided into a colitis induction group and a normal group. The colitis induction group was allowed to freely drink a 2.6 w/v % DSS (MP Biochemicals, M.W. 36,000-50,000, Lot No. 4556J) solution to induce colitis. On day 8 when the stool score (defined in Example 23) of the colitis induction group reached about 4.5, the mice were subdivided into a control group, a compound F 1 mg/kg administration group and a salazosulfapyridine (SIGMA, Lot No. 085K1930, hereinafter to be abbreviated as SASP) 100 mg/kg administration group. Then the mice were allowed to freely drink distilled water instead of DSS solution for 9 days (remission period). After the grouping, the stool score was evaluated every 3-4 days. […]
# Compound F at a dose of 1 mg/kg and SASP at a dose of 100 mg/kg were orally administered once a day, daily, for 50 days from the initial remission period (day 8 from the start of 2.6 w/v % DSS drinking) to the fifth remission period (day 57 from the start of 2.6 w/v % DSS drinking). […] The remission ratio (%) was calculated as a ratio of mice in remission in each group. […]
# T1 sequence (P35408 whole entry): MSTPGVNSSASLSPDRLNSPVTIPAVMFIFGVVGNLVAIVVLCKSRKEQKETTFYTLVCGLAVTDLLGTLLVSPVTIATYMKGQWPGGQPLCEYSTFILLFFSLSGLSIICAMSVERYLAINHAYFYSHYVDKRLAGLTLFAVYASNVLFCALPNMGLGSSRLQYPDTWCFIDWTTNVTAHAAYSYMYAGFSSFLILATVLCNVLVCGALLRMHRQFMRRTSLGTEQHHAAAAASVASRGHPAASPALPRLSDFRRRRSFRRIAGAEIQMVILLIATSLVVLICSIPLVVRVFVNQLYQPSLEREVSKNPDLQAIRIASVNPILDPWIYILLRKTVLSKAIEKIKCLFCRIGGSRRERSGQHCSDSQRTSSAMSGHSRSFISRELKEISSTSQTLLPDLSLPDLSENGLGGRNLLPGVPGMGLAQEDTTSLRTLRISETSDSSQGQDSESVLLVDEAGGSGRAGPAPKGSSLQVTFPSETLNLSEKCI
structure (smiles),measurement,setting,value
"Cc1cccc(C(C)[C@H](O)/C=C/[C@@H]2[C@@H]3[C@H](C[C@H]2O)O/C(=C\CCCc2nnn[nH]2)C3(F)F)c1 (mixture of isomers) [compound F/J, 4-[(Z)-(1S,5R,6R,7R)-6-[(1E,3R,4RS)-3-hydroxy-4-(m-tolyl)-1-pentenyl]-7-hydroxy-2-oxa-4,4-difluoro-bicyclo[3.3.0]octan-3-ylidene]-1-(tetrazol-5-yl)butane]",24-hr urine protein,[1],lower value than control
same,24-hr urine volume,[1],of the same level as the normal group
same,Body weight,[1],shift similar to that of the control group
same,Relative kidney weight,[1],lower than control and near the normal
same,"Renal histopathology: total glomerular cells, mesangial region and PCNA-positive cells in the glomerulus",[1],significantly suppressed the increase
"Cc1cccc([C@H](C)[C@H](O)/C=C/[C@@H]2[C@@H]3[C@H](C[C@H]2O)O/C(=C\CCCc2nnn[nH]2)C3(F)F)c1 [Compound J, 4-[(Z)-(1S,5R,6R,7R)-6-[(1E,3R,4S)-3-hydroxy-4-(m-tolyl)-1-pentenyl]-7-hydroxy-2-oxa-4,4-difluoro-bicyclo[3.3.0]octan-3-ylidene]-1-(tetrazol-5-yl)butane]",Affinity for human EP4 higher than to human IP,[2],40 fold
same,Residual ratio of parent compound after β-oxidation reaction,[3],90.1 ± 6.9%
"CC#CCC(C)[C@H](O)/C=C/[C@@H]1[C@H]2c3cccc(CCCC(=O)O)c3O[C@H]2C[C@H]1O (mixture of isomers) [BPS, beraprost sodium, reference compound]",Effect on shortening of the large intestine,[4],no effect
same,Effect on stool score,[4],tendency toward aggravation
same,Effect on heart rate,[5],on the increase and remained high even after 10 min
same,Maximum decrease ratio of mean blood pressure,[5],38%
"C[C@]12C=CC(=O)C=C1CC[C@@H]1[C@@H]2[C@@H](O)C[C@@]2(C)[C@H]1CC[C@]2(O)C(=O)CO [prednisolone, reference compound]",Effect on increase of plasma ALT and plasma AST activities,[6],significantly and strongly suppressed the increase
same,Effect on body weight decrease score,[7],clearly worsened the score
same,Effect on fecal occult blood score,[7],suppressed an increase in the fecal occult blood score by almost the same level as the compound F administration
same,Effect on stool consistency score,[7],failed to show a clear effect
"O=C(O)c1cc(/N=N/c2ccc(S(=O)(=O)Nc3ccccn3)cc2)ccc1O [SASP, salazosulfapyridine, reference compound]",Effect on stool score in remission and relapse periods,[8],did not show a clear effect
